Test results taken from patent publication US6403788B1, “Non-genotoxic metalloporphyrins as synthetic catalytic scavengers of reactive oxygen species” (Eukarion, Inc., priority 2000, dated 2002).

Assays:
[1] = Peroxidase activity, ABTS oxidation; type: biochemical; conditions: 10 μM compound, 200 μM hydrogen peroxide, 500 μM ABTS, pH 8.1, 740 nm
Method: Peroxidase activity was measured by incubating 10 μM compound, 200 μM hydrogen peroxide and 500 μM ABTS in 50 mM sodium phosphate, pH 8.1. The rate of ABTS oxidation was monitored at 740 nm and initial rates (change in absorbance per min.) determined.

[2] = Catalase activity, hydrogen peroxide consumed at 20 minutes; type: biochemical; conditions: over 20 minutes; 10 μM compound, 100 μM hydrogen peroxide, 40 mM sodium phosphate pH 7.4
Method: (§1) Catalase activity was measured by incubating the sample compound with hydrogen peroxide and determining the amount of hydrogen peroxide remaining after a period of time using a colorimetric peroxidase-coupled assay method. 10 μM sample compound and 100 μM hydrogen peroxide in 40 mM sodium phosphate pH 7.4 were incubated together at ambient temperature in a multi-well plate. After the desired reaction period had elapsed, 20 μl of peroxidase/ABTS reagent was added (peroxidase/ABTS reagent contained 100 μl of 50 mM Na phosphate, pH 7.4, 1 mg horseradish peroxidase (1310 U/mg) and […]). After five minutes, absorbance at 750 nm was determined. The amount of hydrogen peroxide remaining was calculated based on a standard curve. To compare rates of catalase reaction, the amount of hydrogen peroxide consumed at 20 minutes was determined (See table III). It was also of interest to determine the total number of turnovers completed by the compound before inactivation by hydrogen peroxide. This was assayed under similar conditions, except that 15.8 μM compound was combined with 1582 μM hydrogen peroxide in 5 mM Na phosphate, pH 7.4. Reactions were allowed to proceed to completion and then the amount of hydrogen peroxide remaining was determined as described above. Results showing […] in the turnover assay (nmoles hydrogen peroxide per nmole compound) are also shown in Table III.

[3] = Superoxide dismutase activity, xanthine-xanthine oxidase / cytochrome C; type: biochemical; conditions: reciprocal of IC50; xanthine 60 μM, xanthine oxidase 0.009 units/ml, cytochrome C 27.8 μM
Method: Superoxide Dismutase Activity was measured by incubating the compound with a superoxide generating system (Xanthine, 60 μM-Xanthine Oxidase, 0.009 units/ml) and a detector molecule (Cytochrome C, 27.8 μM). Upon reacting with a molecule of superoxide, Cytochrome C undergoes a spectrum-shift which can be detected as an increase in absorbance at 550 nm. In this assay procedure, the reactant concentrations were adjusted to give a reaction rate close to 0.1 AU/min. at 2-3 min. after the reaction began. Addition of compounds with Superoxide Dismutase activity reduce the rate of absorbance change. Compounds were assayed at several concentrations (typically at 0, 2, 4, and 8 μM) and the resulting rates were graphed and fitted to a linear regression formula. The linear regression formula was then solved to determine the concentration of compound required to reduce the reaction rate to 50% of the rate without compound present (IC50).

[4] = Catalase turnover assay, total hydrogen peroxide consumed before inactivation; type: biochemical; conditions: to completion, 15.8 μM compound, 1582 μM hydrogen peroxide, 5 mM Na phosphate pH 7.4
Method: as §1

[5] = system: ΦX 174 DNA Plasmid (Form I); assay: Cleavage of ΦX 174 DNA plasmid (form I), compound alone or activated with KHSO5; type: biochemical, phage ΦX 174; conditions: for S (single-strand breaks per DNA molecule) / form % I / form % II / form % III: DNA 3.5 nM, compound 10 nM
Excerpt: The DNA cleavage activity was quantified in terms of number of single-strand breaks per DNA molecule according to the equation […], Io=% form I (supercoiled DNA) in the DNA control, and I=% form I in the experiment (see Bernadou et al, Biochemistry, 28: 7268-7275, (1989)). This assay is very sensitive and is able to detect very low levels of DNA activity. S values less than S=1.0 are indicative of very low DNA cleavage activity when the compounds are at a concentration of equal to or less than 1000 nM and KHSO5 is present at a concentration of equal to or less than 100 μM.
ΦX 174 DNA digestion conditions for standard experiments were as follows: commercially available DNA was diluted to 50 μg/mL in phosphate buffer (10 mM, pH 7.5). The reaction involved 5 μL of ΦX 174 DNA (50 μg/mL, 74.8 μM in base pairs), 5 μL of 40 mM phosphate buffer, pH 7.5 with 400 mM NaCl, 5 μL of metalloporphyrin in double-distilled water or 5 μL of iron-bleomycin complex in double-distilled water, and 5 μL of KHSO5 or 5 μL of H2O2 or 5 μL of ascorbate in double-distilled water. Preincubation of DNA and metalloporphyrins or iron-bleomycin complex was performed for about 15 min. The digestion time in the presence of KHSO5 was 10 min, of H2O2 was 30 min and of ascorbate was 30 min at 20° C. DNA cleavage was monitored by agarose gel electrophoresis. Reactions with KHSO5 were first quenched by 2 μL of 100 mM Hepes buffer, pH 8. In all cases, reactions were quenched by 5 μL of a stopping reagent. The stopping reagent consisted of 250 mM Hepes buffer, pH 7.4, containing 75% glycerol and 0.05% bromophenol blue. Reaction mixtures were then run in 0.8% agarose slab horizontal gel containing ethidium bromide […], at constant current (25 mA for 15h), in 89 mM Tris-borate buffer and 2.5 mM EDTA pH 8.3. Bands were located by WV light (254 nm), photographed, and quantitated by microdensitometry. The correction coefficient 1.47±0.30 was used for decreased stainability of form I DNA vs form II DNA and form III DNA.

[6] = system: ΦX 174 DNA Plasmid (Form I); conditions: literature (Bernadou 1989, Vialas 2000, Meunier 1992); cited from earlier work
[7] = system: CBA/J female mice, oxazolone-induced inflammatory ear edema; assay: Delayed type hypersensitivity: oxazolone-induced ear edema; type: in vivo
Excerpt: CBA/J female mice (Jackson Labs, Bar Harbor, ME) 7 weeks of age were pre-sensitized with 3% oxazolone (Sigma Chemical Co., St. Louis, Mo.) in 99.9% acetone, on the abdomen. After 8 days, the mice were challenged with 1.2% oxazolone topically on one ear to induce an inflammatory edema. Either Structural Formula V, Structural Formula IV at a dose of 7 nmoles/ear each, or ethanol, i.e. vehicle control (eight mice per study group), was applied topically to the ear immediately after the oxazolone challenge. Ear edema was measured by comparing the tissue water content (the wet weight minus the dry weight) of the challenged ear to that of the control ear. The percent edema (% water in the right ear-left ear) in the vehicle control was 6.5% and 2.1% and 3.9% for Structural Formula V and Structural Formula IV, respectively at a dose of 7 nmoles/ear.

| SMILES | PEROXIDASE Initial Rate [1] | CATALASE* Rate at 20 mins. [2] | Cyt C SOD 1/(IC50, μM) [3] [µM⁻¹] | CATALASE** H2O2 Consumption [4] | S (single-strand breaks per DNA molecule) ([5]; KHSO5 10 μM) [SSBs] | form % I ([5]; KHSO5 10 μM) [%] | form % II ([5]; KHSO5 10 μM) [%] | form % III ([5]; KHSO5 10 μM) [%] | S (single-strand breaks per DNA molecule) ([5]; without KHSO5) [SSBs] | form % I ([5]; without KHSO5) [%] | form % II ([5]; without KHSO5) [%] | form % III ([5]; without KHSO5) [%] | times more active in DNA cleavage than Structural Formula V ([5]; same concentration (10 nM), with KHSO5, from experiments 6, 9 and 10) [times] | oxidative DNA cleavage (literature statement) [6] | effect on edema compared to vehicle ([7]; 7 nmoles/ear topically) | percent edema (% water in the right ear-left ear) ([7]; 7 nmoles/ear topically immediately after oxazolone challenge, vehicle control 6.5%) [%] |
| --- | --- | --- | --- | --- | --- | --- | --- | --- | --- | --- | --- | --- | --- | --- | --- | --- |
| C[n+]1ccc(-c2c3nc(c(-c4cc[n+](C)cc4)c4ccc([n-]4)c(-c4cc[n+](C)cc4)c4nc(c(-c5cc[n+](C)cc5)c5ccc2[n-]5)C=C4)C=C3)cc1.[Mn+3] [MnTMPyP, 5, 10, 15, 20 meso-tetrakis(4-methylpyridiniumyl)porphyrinato-manganese (III), reference compound] | 0.0672 change in absorbance per min. | 3.4 nmole H2O2/nmole Structural Formula compound | 0.143 | 31.1 nmole H2O2/nmole Structural Formula compound | 15.3 | 1 | 86 | 13 | 0.03 | 90 | 10 | 0 | 1527 | able to generate DNA damage at nanomolar concentrations | – | – |
| CC[NH+](CC)CCNS(=O)(=O)c1c(C)cc(C)c(C2=C3C=CC4=[N+]3[Mn-]35[n]6c2ccc6C(c2c(C)cc(C)c(S(=O)(=O)NCC[NH+](CC)CC)c2C)=C2C=CC(=[N+]23)C(c2c(C)cc(C)c(S(=O)(=O)NCC[NH+](CC)CC)c2C)=c2ccc([n]25)=C4c2c(C)cc(C)c(S(=O)(=O)NCC[NH+](CC)CC)c2C)c1C.[Cl-].[Cl-].[Cl-].[Cl-].[Cl-] [Structural Formula IV, meso-tetrakis[3-(N-(2-(N,N-diethylammonio)ethyl)aminosulfonyl)-2,4,6-trimethylphenyl]porphyrinato diaqua-manganese (III) pentachloride] | 0.021 change in absorbance per min. | 1.0 nmole H2O2/nmole Structural Formula compound | 0.043 | 189.9 nmole H2O2/nmole Structural Formula compound | – | – | – | – | – | – | – | – | – | – | effective in reducing the percentage of edema | 3.9 |
